Measurements as given in patent US7205315B2, “Bicyclic imino acid derivatives as inhibitors of matrix metalloproteinases” (Sanofi-Aventis Deutschland GmbH, priority 2003, dated 2007).
pIC50: −log10 of the molar value. Where a name gives a salt, the structure may show the parent alone.

How the values were obtained:
Assay type in all cases: biochemical
[1] = molecular target: T1, catalytic domain of human stromelysin (MMP-3) (Homo sapiens, UniProt P08254); assay: Enzyme activity of the catalytic domain of human stromelysin (MMP-3), fluorogenic substrate; conditions: catalytic domain prepared as described by Ye et al., fluorescence 328/393 nm
T1 construct: of the catalytic domain of human stromelysin (MMP-3) and neutrophilic collagenase (MMP-8); made in house
T1 sequence (P08254 100-272 limits assumed): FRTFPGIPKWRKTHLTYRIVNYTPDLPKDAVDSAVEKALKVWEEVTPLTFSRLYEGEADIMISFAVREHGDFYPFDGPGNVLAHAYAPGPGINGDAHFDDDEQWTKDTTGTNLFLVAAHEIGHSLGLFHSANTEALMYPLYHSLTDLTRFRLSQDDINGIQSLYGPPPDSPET
Description: (§1) b) Preparation, and determination of the enzyme activity, of the catalytic domain of human stromelysin (MMP-3) and neutrophilic collagenase (MMP-8).
(§2) The two enzymes, i.e. stromelysin (MMP-3) and neutrophilic collagenase (MMP-8), were prepared as described by Ye et al. (Biochemistry; 31 (1992) pages 11231–11235). In order to measure the enzyme activity or the inhibitory effect on the enzyme, 10 μl of enzyme solution were incubated, for 15 minutes, with 10 μl of a 3% (v/v) buffered solution of dimethyl sulfoxide which contained the enzyme inhibitor, where appropriate. After 10 μl of a 3% (v/v) aqueous solution of dimethyl sulfoxide which contained 1 mmol of substrate/l had been added, the enzyme reaction was monitored by fluorescence spectroscopy (328 nm (ex)/393 nm(em)).
(§3) The enzyme activity is presented as increase in extinction/minute.
(§4) The buffer solution contained 0.05% Brij (Sigma, Deisenhofen, Germany) as well as 0.1 mol of tris/HCl/l, 0.1 mol of NaCl/l, 0.01 mol of CaCl2/l and 0.1 mol of piperazine-N,N′-bis[2-ethanesulfonic acid]/l (pH=7.5). The MMP-3 enzyme solution contained 2.3 μg, and the MMP-8 enzyme solution contained 0.6 μg, of one of the enzyme domains/ml prepared as described by Ye et al. The substrate solution contained 1 mmol of the fluorogenic substrate (7-methoxycoumarin-4-yl)acetyl-Pro-Leu-Gly-Leu-3-(2′,4′-dinitrophenyl)-L-2,3-diaminopropionyl-Ala-Arg-NH2/l (Bachem, Heidelberg, Germany).

[2] = molecular target: T2, catalytic domain of human neutrophilic collagenase (MMP-8) (Homo sapiens, UniProt P22894); assay: Enzyme activity of the catalytic domain of neutrophilic collagenase (MMP-8), fluorogenic substrate; conditions: catalytic domain prepared as described by Ye et al., fluorescence 328/393 nm
T2 construct: of the catalytic domain of human stromelysin (MMP-3) and neutrophilic collagenase (MMP-8); made in house
T2 sequence (P22894 100-262 limits assumed): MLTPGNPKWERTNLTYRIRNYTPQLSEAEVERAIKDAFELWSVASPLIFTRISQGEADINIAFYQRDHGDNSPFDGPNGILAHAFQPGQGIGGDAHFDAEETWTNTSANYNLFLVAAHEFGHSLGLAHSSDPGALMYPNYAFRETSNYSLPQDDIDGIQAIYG
Description: as §1, §2, §3, §4

[3] = molecular target: T3, catalytic domain of human gelatinase B (MMP-9) (Homo sapiens, UniProt P14780); assay: Enzyme activity of the catalytic domain of human gelatinase B (MMP-9), fluorogenic substrate; conditions: APMA-activated proenzyme, fluorescence 328/393 nm
T3 construct: enzyme activity of the catalytic domain of human gelatinase B (MMP-9); purchased Roche, Mannheim 1 758 896
T3 sequence (P14780 107-707 limits assumed): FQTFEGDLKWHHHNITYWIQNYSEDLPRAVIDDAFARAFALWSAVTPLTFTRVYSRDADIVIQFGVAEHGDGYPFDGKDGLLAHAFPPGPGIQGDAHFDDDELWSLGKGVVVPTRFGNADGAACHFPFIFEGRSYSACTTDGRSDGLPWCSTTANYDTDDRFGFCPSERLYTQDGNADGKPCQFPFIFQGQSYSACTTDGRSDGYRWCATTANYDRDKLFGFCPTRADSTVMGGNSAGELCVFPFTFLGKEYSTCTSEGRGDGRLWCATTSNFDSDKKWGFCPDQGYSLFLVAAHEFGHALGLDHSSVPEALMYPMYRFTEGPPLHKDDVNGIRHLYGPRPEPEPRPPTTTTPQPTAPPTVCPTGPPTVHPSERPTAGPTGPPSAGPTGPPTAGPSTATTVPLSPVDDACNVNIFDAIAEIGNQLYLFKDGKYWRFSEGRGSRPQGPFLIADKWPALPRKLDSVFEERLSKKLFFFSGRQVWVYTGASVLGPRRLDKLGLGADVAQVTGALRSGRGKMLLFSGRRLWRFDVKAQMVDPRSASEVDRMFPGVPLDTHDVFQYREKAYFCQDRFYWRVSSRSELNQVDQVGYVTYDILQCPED
Description: e) Determining the enzyme activity of the catalytic domain of human gelatinase B (MMP-9). […] Activation of the proenzyme:
(§5) 2 parts by volume of proenzyme were incubated, at 37° C. for 4 hours, with 1 part by volume of APMA solution. The APMA solution was prepared from a 10 mmol/l solution of p-aminophenylmercuric acetate in 0.1 mmol/l NaOH by diluting it with 3 parts by volume of tris/HCl buffer, pH 7.5 (see below). The pH was adjusted to between 7.0 and 7.5 by adding 1 mmol/l HCl. After the enzyme had been activated, it was diluted with the tris/HCl buffer to a concentration of 4.2 mU/ml.
In order to measure the activity of the enzyme, 10 μl of enzyme solution were incubated for 15 minutes with 10 μl of a 3% (v/v) buffered solution of dimethyl sulfoxide (reaction 1). In order to measure the enzyme inhibitor activity, 10 μl of enzyme solution were incubated with 10 μl of a 3% (v/v) buffered solution of dimethyl sulfoxide which contained the enzyme inhibitor (reaction 2). Both in the case of reaction 1 and in the case of reaction 2, the enzyme reaction was monitored by fluorescence spectroscopy (328 nm (extinction)/393 nm (emission)) after 10 ul of a 3% (v/v) aqueous solution of dimethyl sulfoxide, which contained 0.15 mmol of the substrate/l, had been added.
(§6) The enzyme activity was presented as increase in extinction/minute.
The inhibitory effect was calculated as percentage inhibition in accordance with the following formula: % inhibition=100−[(increase in extinction/minute in reaction 2)/(increase in extinction/minute in reaction 1)×100].
(§7) The IC50, that is the concentration of inhibitor which is required for 50% inhibition of the enzyme activity, was determined graphically by plotting the percentage inhibitions at different inhibitor concentrations.
The buffer solution contained 0.05% Brij (Sigma, Deisenhofen, Germany) and also 0.1 mol of tris/HCl/l, 0.1 mol of NaCl/l, 0.01 mol of CaCl2/l (pH=7.5). The enzyme solution contained 4.2 mU of the enzyme domain/ml. The substrate solution contained 0.15 mmol of the fluorogenic substrate (7-methoxycoumarin-4-yl)acetyl-Pro-Leu-Gly-Leu-3-(2′,4′-dinitrophenyl)-L-2,3-diaminopropionyl-Ala-Arg-NH2/ (Bachem, Heidelberg, Germany).

[4] = molecular target: T4, catalytic domain of human collagenase-3 (MMP-13) (Homo sapiens, UniProt P45452); assay: Enzyme activity of the catalytic domain of human collagenase-3 (MMP-13), fluorogenic substrate; conditions: APMA-activated proenzyme, fluorescence 328/393 nm
T4 construct: enzyme activity of the catalytic domain of human collagenase-3 (MMP-13); purchased INVITEK, Berlin 30 100 803
Description: c) Determining the enzyme activity of the catalytic domain of human collagenase-3 (MMP-13).
Activation of the proenzyme:
as §5, with “for 1.5” for “for 4”, “diluting the solution” for “diluting it”, “of 1.67 μg/ml.” for “of 4.2 mU/ml.”
In order to measure the enzyme activity, 10 μl of enzyme solution were incubated for 15 minutes with 10 μl of a 3% (v/v) buffered solution of dimethyl sulfoxide (reaction 1). In order to measure the enzyme inhibitor activity, 10 μl of enzyme solution were incubated with 10 μl of a 3% (v/v) buffered solution of dimethyl sulfoxide which contained the enzyme inhibitor (reaction 2).
Both in the case of reaction 1 and in the case of reaction 2, the enzyme reaction was monitored by fluorescence spectroscopy (328 nm (extinction)/393 nm (emission)) after 10 μl of a 3% (v/v) aqueous solution of dimethyl sulfoxide which contained 0.075 mmol of the substrate/1 had been added.
as §6
The effect of the inhibitor was calculated as a percentage inhibition in accordance with the following formula: % inhibition=100−[(increase in extinction/minute in reaction 2)/(increase in extinction/minute in reaction 1)×100].
as §7
The buffer solution contained 0.05% Brij (Sigma, Deisenhofen, Germany) and also 0.1 mol of tris/HCl/l, 0.1 mol of NaCl/l, 0.01 mol of CaCl2/l (pH=7.5). The enzyme solution contained 1.67 μg of the enzyme domain/ml. The substrate solution contained 0.075 mmol of the fluorogenic substrate (7-methoxycoumarin-4-yl)acetyl-Pro-Leu-Gly-Leu-3-(2′,4′-dinitrophenyl)-L-2,3-diaminopropionyl-Ala-Arg-NH2/1 (Bachem, Heidelberg, Germany).

pIC50 [1] | pIC50 [2] | pIC50 [3] | pIC50 [4] | SMILES
7.60 | 8.60 | 8.70 | 8.82 | COc1ccc(Oc2ccc(S(=O)(=O)N3CCC4CCCCC4C3C(=O)NO)cc2)cc1 (stereo not shown) [Example 11, 2-[4-(4-methoxyphenoxy)benzenesulfonyl]decahydroisoquinoline-1-(N-hydroxy)carboxamide]
7.52 | 8.40 | 8.70 | 8.70 | O=C(NO)C1C2CCCCC2CCN1S(=O)(=O)c1ccc(Oc2ccc(OCC(F)(F)F)cc2)cc1 (stereo not shown) [Example 13, 2-{4-[4-(2,2,2-trifluoroethoxy)phenoxy]benzenesulfonyl}decahydroisoquinoline-1-(N-hydroxy)carboxamide]
7.59 | 8.52 | 8.70 | 8.70 | O=C(NO)C1C2CCCCC2CCN1S(=O)(=O)c1ccc(Oc2ccc(F)cc2)cc1 (stereo not shown) [Example 20, 2-[4-(4-fluorophenoxy)benzenesulfonyl]decahydroisoquinoline-1-(N-hydroxy)carboxamide]
7.64 | 8.64 | 9.35 | 8.89 | O=C(NO)[C@H]1[C@H]2CCCC[C@H]2CCN1S(=O)(=O)c1ccc(Oc2ccc(F)cc2)cc1 [Example 21, 2-[4-(4-fluorophenoxy)benzenesulfonyl]decahydroisoquinoline-1-(N-hydroxy)carboxamide]
7.30 | 8.05 | 8.70 | 8.68 | O=C(NO)C1C2CCCCC2CCN1S(=O)(=O)c1ccc(Oc2ccc(OC(F)(F)F)cc2)cc1 (stereo not shown) [Example 23, 2-[4-(4-trifluoromethoxyphenoxy)benzenesulfonyl]decahydroisoquinoline-1-(N-hydroxy)carboxamide]
7.39 | 7.80 | 8.52 | 8.52 | N#Cc1ccc(Oc2ccc(S(=O)(=O)N3CCC4CCCCC4C3C(=O)NO)cc2)cc1 (stereo not shown) [Example 26, 2-[4-(4-cyanophenoxy)benzenesulfonyl]decahydroisoquinoline-1-(N-hydroxy)carboxamide]

Further lines, the molecule ahead of its results:

SMILES | pIC50 [1] | pIC50 [2] | pIC50 [3] | pIC50 [4]
O=C(NO)[C@H]1[C@H]2CCCC[C@H]2CCN1S(=O)(=O)c1ccc(-c2ccc(Cl)cc2)cc1 (single isomer, unassigned) [Example 14, 2-(4′-chlorobiphenyl-4-sulfonyl)decahydroisoquinoline-1-(N-hydroxy)-carboxamide] | 7.60 | 8.66 | 8.46 | 8.70
O=C(NO)[C@@H]1[C@@H]2CCCC[C@@H]2CCN1S(=O)(=O)c1ccc(-c2ccc(Cl)cc2)cc1 (single isomer, unassigned) [Example 15, 2-(4′-chlorobiphenyl-4-sulfonyl)decahydroisoquinoline-1-(N-hydroxy)-carboxamide] | 5.00 | 5.70 | 5.40 | 5.64
O=C(NO)C1C2CCCCC2CCN1S(=O)(=O)c1ccc(-c2ccc(Cl)cc2)cc1 (stereo not shown) [Example 3, 2-(4′-chlorobiphenyl-4-sulfonyl)decahydroisoquinoline-1-(N-hydroxy)-carboxamide] | 7.40 | 8.52 | 7.00 | 8.52
O=C(NO)C1C2CCCCC2CCN1S(=O)(=O)c1ccc(Oc2ccccc2)nc1 (stereo not shown) [Example 5, 2-(6-phenoxypyridine-3-sulfonyl)decahydroisoquinoline-1-(N-hydroxy)-carboxamide trifluoroacetate] | 7.55 | 8.60 | 8.92 | 8.74
O=C(NO)C1C2CCCCC2CCN1S(=O)(=O)CCc1ccc(-c2ccc(Cl)cc2)cc1 (stereo not shown) [Example 7, 2-[2-(4′-chlorobiphenyl-4-yl)ethanesulfonyl]decahydroisoquinoline-1-(N-hydroxy)carboxamide] | 7.19 | 7.89 | 8.52 | 8.15
O=C(NO)C1C2CCCCC2CCN1S(=O)(=O)c1ccc(Oc2ccncc2)cc1 (stereo not shown) [Example 9, 2-[4-(pyridin-4-yloxy)benzenesulfonyl]decahydroisoquinoline-1-(N-hydroxy)carboxamide trifluoroacetate] | 6.80 | 7.66 | 7.92 | 7.68
O=C(NO)C1C2CCCCC2CCN1S(=O)(=O)c1ccc(-c2ccc(OC(F)(F)F)cc2)cc1 (stereo not shown) [Example 19, 2-(4′-trifluoromethoxybiphenyl-4-sulfonyl)decahydroisoquinoline-1-(N-hydroxy)carboxamide] | 7.23 | 8.00 | 8.30 | 8.52
